Source: patent US9145373B2, “Certain kynurenine-3-monooxygenase inhibitors, pharmaceutical compositions, and methods of use thereof” (CHDI FOUNDATION, INC., priority 2008, dated 2015)
Structures can show the parent of a compound that is named as a salt.

The compounds below were run against T1, KMO mouse enzyme (Mus musculus, UniProt Q91WN4) (assay: KMO mouse enzyme assay: L-Kynurenine hydroxylation to 3-Hydroxy-Kynurenine monitored by LC/MS (MRM)). Conditions: compound at 10 μM; KMO enzyme from mouse liver mitochondria.
T1 construct: KMO enzyme prepared at Evotec from mouse liver (4-6 weeks old) via mitochondria isolation; from tissue; host or cells: mouse liver (4-6 weeks old), mitochondria isolation, prepared at Evotec
T1 sequence (Q91WN4 whole entry): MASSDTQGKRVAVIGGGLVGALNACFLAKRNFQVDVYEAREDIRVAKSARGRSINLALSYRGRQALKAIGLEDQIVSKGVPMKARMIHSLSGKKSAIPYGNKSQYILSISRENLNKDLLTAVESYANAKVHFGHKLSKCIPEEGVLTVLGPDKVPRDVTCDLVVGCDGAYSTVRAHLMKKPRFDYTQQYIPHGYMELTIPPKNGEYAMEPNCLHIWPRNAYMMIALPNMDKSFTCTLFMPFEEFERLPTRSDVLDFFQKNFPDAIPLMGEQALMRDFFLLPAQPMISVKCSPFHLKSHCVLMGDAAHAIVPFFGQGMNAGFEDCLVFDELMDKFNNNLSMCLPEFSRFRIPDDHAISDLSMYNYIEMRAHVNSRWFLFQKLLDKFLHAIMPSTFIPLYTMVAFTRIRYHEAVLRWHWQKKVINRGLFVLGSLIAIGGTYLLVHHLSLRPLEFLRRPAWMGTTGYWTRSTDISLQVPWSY
Format: biochemical
Protocol: A method of monitoring L-Kynurenine (KYN) hydroxylation to form 3-Hydroxy-Kynurenine (3OH-KYN) by LC/MS is described. Product is quantified by multiple reaction monitoring (MRM method).
• Compound: Stock concentrations: 10 mM in 100% DMSO • Enzyme: KMO enzyme prepared at Evotec from mouse liver (4-6 weeks old) via mitochondria isolation as described in the literature • Substrate: L-Kynurenine (Sigma: Cat# K3750, stock concentration: 10 mM in 100 mM potassium phosphate buffer, pH 7.4) Assay Conditions: […]
In the case of CN1CCN(c2ccc(NC(=O)c3cc(-c4cccc(Cl)c4)ncn3)cc2)CC1 [6-(3-Chloro-phenyl)-pyrimidine-4-carboxylicacid[4-(4-methyl-piperazin-1-yl)-phenyl]-amide], the “INH.Mouse @ 10 μM” value is reported as 87.7.

Same assay, conditions: compound at 10 μM; KMO enzyme from mouse liver mitochondria; read-out: INH.Mouse @ 10 μM
Work on CC(C)NC(=O)c1cc(-c2cccc(Cl)c2)ncn1 [6-(3-Chloro-phenyl)-pyrimidine-4-carboxylic acid isopropylamide] yielded an inhibition at 10 µM of 100%. For O=C(Nc1ccon1)c1cc(-c2cccc(Cl)c2)ncn1 [6-(3-Chloro-phenyl)-pyrimidine-4-carboxylic acid isoxazol-3-ylamide], the inhibition at 10 µM was 100%. Compound Cc1cccc(NC(=O)c2cc(-c3cccc(Cl)c3)ncn2)c1 [6-(3-Chloro-phenyl)-pyrimidine-4-carboxylic acid m-tolylamide] has an inhibition at 10 µM of 96.6%. COC(=O)c1cc(-c2cccc(Cl)c2)ncn1 [6-(3-Chloro-phenyl)-pyrimidine-4-carboxylic acid methyl ester] gave an inhibition at 10 µM of 106%. Compound Cc1ccc(N(C)C(=O)c2cc(-c3cccc(Cl)c3)ncn2)cc1 [6-(3-Chloro-phenyl)-pyrimidine-4-carboxylic acid methyl-p-tolyl-amide] has an inhibition at 10 µM of 100%. CN(C(=O)c1cc(-c2cccc(Cl)c2)ncn1)c1ccccc1 [6-(3-Chloro-phenyl)-pyrimidine-4-carboxylic acid methyl-phenyl-amide] showed an inhibition at 10 µM of 100%. CN(C(=O)c1cc(-c2cccc(Cl)c2)ncn1)c1cccnc1 [6-(3-Chloro-phenyl)-pyrimidine-4-carboxylic acid methyl-pyridin-3-yl-amide] gave an inhibition at 10 µM of 95.2%. CNC(=O)c1cc(-c2cccc(Cl)c2)ncn1 [6-(3-Chloro-phenyl)-pyrimidine-4-carboxylic acid methylamide] showed an inhibition at 10 µM of 100%. In the case of Cc1ccccc1NC(=O)c1cc(-c2cccc(Cl)c2)ncn1 [6-(3-Chloro-phenyl)-pyrimidine-4-carboxylic acid o-tolylamide], the inhibition at 10 µM is reported as 96.2%. O=C(Nc1ncco1)c1cc(-c2cccc(Cl)c2)ncn1 [6-(3-Chloro-phenyl)-pyrimidine-4-carboxylic acid oxazol-2-ylamide] was tested, and the inhibition at 10 µM was 100%. With Cc1ccc(NC(=O)c2cc(-c3cccc(Cl)c3)ncn2)cc1 [6-(3-Chloro-phenyl)-pyrimidine-4-carboxylic acid p-tolylamide] the inhibition at 10 µM was 100%. Compound O=C(Nc1ccccc1)c1cc(-c2cccc(Cl)c2)ncn1 [6-(3-Chloro-phenyl)-pyrimidine-4-carboxylic acid phenylamide] has an inhibition at 10 µM of 100%. Compound CCCNC(=O)c1cc(-c2cccc(Cl)c2)ncn1 [6-(3-Chloro-phenyl)-pyrimidine-4-carboxylic acid propylamide] has an inhibition at 10 µM of 72.4%. O=C(Nc1cnccn1)c1cc(-c2cccc(Cl)c2)ncn1 [6-(3-Chloro-phenyl)-pyrimidine-4-carboxylic acid pyrazin-2-ylamide] gave an inhibition at 10 µM of 100%. O=C(Nc1cccnn1)c1cc(-c2cccc(Cl)c2)ncn1 [6-(3-Chloro-phenyl)-pyrimidine-4-carboxylic acid pyridazin-3-ylamide] showed an inhibition at 10 µM of 100%. With O=C(Nc1ccccn1)c1cc(-c2cccc(Cl)c2)ncn1 [6-(3-Chloro-phenyl)-pyrimidine-4-carboxylic acid pyridin-2-ylamide] the inhibition at 10 µM was 100%. Work on O=C(Nc1cccnc1)c1cc(-c2cccc(Cl)c2)ncn1 [6-(3-Chloro-phenyl)-pyrimidine-4-carboxylic acid pyridin-3-ylamide] yielded an inhibition at 10 µM of 98.6%. O=C(Nc1ccncc1)c1cc(-c2cccc(Cl)c2)ncn1 [6-(3-Chloro-phenyl)-pyrimidine-4-carboxylic acid pyridin-4-ylamide] gave an inhibition at 10 µM of 100%. With O=C(Nc1ncccn1)c1cc(-c2cccc(Cl)c2)ncn1 [6-(3-Chloro-phenyl)-pyrimidine-4-carboxylic acid pyrimidin-2-ylamide] the inhibition at 10 µM was 100%. With O=C(Nc1cncnc1)c1cc(-c2cccc(Cl)c2)ncn1 [6-(3-Chloro-phenyl)-pyrimidine-4-carboxylic acid pyrimidin-5-ylamide] the inhibition at 10 µM was 100%. With O=C(Nc1nccs1)c1cc(-c2cccc(Cl)c2)ncn1 [6-(3-Chloro-phenyl)-pyrimidine-4-carboxylic acid thiazol-2-ylamide] the inhibition at 10 µM was 100%. For O=C(O)c1cc(-c2cc(F)cc(C(F)(F)F)c2)ncn1 [6-(3-Fluoro-5-trifluoromethyl-phenyl)-pyrimidine-4-carboxylic acid], the inhibition at 10 µM was 75.8%. COC(=O)c1cc(-c2cccc(F)c2)ncn1 [6-(3-Fluoro-phenyl)-pyrimidine-4-carboxylic acid methyl ester] showed an inhibition at 10 µM of 100%. O=C(Nc1cccnc1)c1cc(-c2cccc(F)c2)ncn1 [6-(3-Fluoro-phenyl)-pyrimidine-4-carboxylic acid pyridin-3-ylamide] showed an inhibition at 10 µM of 94.8%. For COC(=O)c1cc(-c2cccc(OC)c2)ncn1 [6-(3-Methoxy-phenyl)-pyrimidine-4-carboxylic acid methyl ester], the inhibition at 10 µM was 77.5%. COc1cccc(-c2cc(C(=O)O)ncn2)c1 [6-(3-Methoxy-phenyl)-pyrimidine-4-carboxylic acid] gave an inhibition at 10 µM of 81%. With COC(=O)c1cc(-c2cccc(C(F)(F)F)c2)ncn1 [6-(3-Trifluoromethyl-phenyl)-pyrimidine-4-carboxylic acid methyl ester] the inhibition at 10 µM was 94.5%. Compound COC(=O)c1cc(-c2ccc(F)c(C(F)(F)F)c2)ncn1 [6-(4-Fluoro-3-trifluoromethyl-phenyl)-pyrimidine-4-carboxylic acid methyl ester] has an inhibition at 10 µM of 92.7%. COc1ccc(-c2cc(C(=O)O)ncn2)cc1 [6-(4-Methoxy-phenyl)-pyrimidine-4-carboxylic acid] gave an inhibition at 10 µM of 100%. For COC(=O)c1cc(-c2cc(Cl)ccc2F)ncn1 [6-(5-Chloro-2-fluoro-phenyl)-pyrimidine-4-carboxylic acid methyl ester], the inhibition at 10 µM was 100%. For O=C(O)c1cc(-c2cc(Cl)ccc2F)ncn1 [6-(5-Chloro-2-fluoro-phenyl)-pyrimidine-4-carboxylic acid], the inhibition at 10 µM was 100%. COC(=O)c1cc(-c2cncc(Cl)c2)ncn1 [6-(5-Chloro-pyridin-3-yl)-pyrimidine-4-carboxylic acid methyl ester] gave an inhibition at 10 µM of 93.2%. O=C(O)c1cc(-c2cncc(Cl)c2)ncn1 [6-(5-Chloro-pyridin-3-yl)-pyrimidine-4-carboxylic acid] was tested, and the inhibition at 10 µM was 91.7%. Compound COC(=O)c1cc(-c2cncc(F)c2)ncn1 [6-(5-Fluoro-pyridin-3-yl)-pyrimidine-4-carboxylic acid methyl ester] has an inhibition at 10 µM of 87.2%. For O=C(O)c1cc(-c2cncc(F)c2)ncn1 [6-(5-Fluoro-pyridin-3-yl)-pyrimidine-4-carboxylic acid], the inhibition at 10 µM was 96.1%. With COC(=O)c1cc(-c2ccccc2)ncn1 [6-Phenyl-pyrimidine-4-carboxylic acid methyl ester] the inhibition at 10 µM was 100%. With COC(=O)c1cc(-c2cccnc2)ncn1 [6-Pyridin-3-yl-pyrimidine-4-carboxylic acid methyl ester trifluoroacetic acid salt] the inhibition at 10 µM was 74.5%. COC(=O)c1cc(-c2cccc(C)c2)ncn1 [6-m-Tolyl-pyrimidine-4-carboxylic acid methyl ester] was tested, and the inhibition at 10 µM was 96.3%. For O=C(c1cc(-c2ccc(Cl)c(Cl)c2)ncn1)N1CCc2cc(Cl)ccc21 [(5-Chloro-2,3-dihydro-indol-1-yl)-[6-(3,4-dichloro-phenyl)-pyrimidin-4-yl]-methanone], the inhibition at 10 µM was 100%. O=C(c1cc(-c2cccc(Cl)c2)ncn1)N1CCc2cc(Cl)ccc21 [(5-Chloro-2,3-dihydro-indol-1-yl)-[6-(3-chloro-phenyl)-pyrimidin-4-yl]-methanone] was tested, and the inhibition at 10 µM was 100%. In the case of NC(=O)[C@H]1CCCN1C(=O)c1cc(-c2cccc(Cl)c2)ncn1 [(R)-1-[6-(3-Chloro-phenyl)-pyrimidine-4-carbonyl]-pyrrolidine-2-carboxylic acid amide], the inhibition at 10 µM is reported as 95.4%. Compound NC(=O)[C@@H]1CCCN1C(=O)c1cc(-c2cccc(Cl)c2)ncn1 [(S)-1-[6-(3-Chloro-phenyl)-pyrimidine-4-carbonyl]-pyrrolidine-2-carboxylic acid amide] has an inhibition at 10 µM of 91.1%. Work on O=C(c1cc(-c2cccc(Cl)c2)ncn1)N1CCC1 [Azetidin-1-yl-[6-(3-chloro-phenyl)-pyrimidin-4-yl]-methanone] yielded an inhibition at 10 µM of 100%. COc1ccc(S(=O)(=O)Nc2cc(-c3ccc(Cl)c(Cl)c3)ncn2)cc1OC [N-[6-(3,4-Dichloro-phenyl)-pyrimidin-4-yl]-3,4-dimethoxy-benzenesulfonamide] showed an inhibition at 10 µM of 85%. In the case of CS(=O)(=O)Nc1cc(-c2ccc(Cl)c(Cl)c2)ncn1 [N-[6-(3,4-Dichloro-phenyl)-pyrimidin-4-yl]-methanesulfonamide], the inhibition at 10 µM is reported as 51.2%. Compound CS(=O)(=O)NC(=O)c1cc(-c2cccc(Cl)c2)ncn1 [N-[6-(3-Chloro-phenyl)-pyrimidine-4-carbonyl]-methanesulfonamide] has an inhibition at 10 µM of 99.5%. O=S(=O)(O)c1cc(-c2cccc(Cl)c2)ncn1 [Sodium; 6-(3-chloro-phenyl)-pyrimidine-4-sulfonate] showed an inhibition at 10 µM of 97.1%. Compound O=C(c1cc(-c2ccc(Cl)c(Cl)c2)ccn1)N1CCc2ccccc21 [[4-(3,4-Dichloro-phenyl)-pyridin-2-yl]-(2,3-dihydro-indol-1-yl)-methanone] has an inhibition at 10 µM of 96.6%. O=C(c1cc(-c2cc(Cl)cc(Cl)c2)ccn1)N1CCc2ccccc21 [[4-(3,5-Dichloro-phenyl)-pyridin-2-yl]-(2,3-dihydro-indol-1-yl)-methanone] showed an inhibition at 10 µM of 54.5%. O=C(c1cc(-c2cccc(Cl)c2)ccn1)N1CCc2ccccc21 [[4-(3-Chloro-phenyl)-pyridin-2-yl]-(2,3-dihydro-indol-1-yl)-methanone] gave an inhibition at 10 µM of 100%.
